In ChEMBL document CHEMBL5126512, “Current status of carbazole hybrids as anticancer agents” (Eur J Med Chem, 2022):
Values belong to the compound of their own block, whether it stands above or below them.

Key:
KYSE-510 = test: Antiproliferative activity against human KYSE-510 cells assessed as cell growth inhibition measured after 48 hrs by CCK-8 assay; format: functional, cell-based; details: KYSE-510, 48 h
KYSE-410 = test: Antiproliferative activity against human KYSE-410 cells assessed as cell growth inhibition measured after 48 hrs by CCK-8 assay; format: functional, cell-based; details: KYSE-410, 48 h
KYSE-30 = test: Antiproliferative activity against human KYSE-30 cells assessed as cell growth inhibition measured after 48 hrs by CCK-8 assay; format: functional, cell-based; details: KYSE-30, 48 h
KYSE-140 = test: Antiproliferative activity against human KYSE-140 cells assessed as cell growth inhibition measured after 48 hrs by CCK-8 assay; format: functional, cell-based; details: KYSE-140, 48 h
[1] = Antiproliferative activity against human KYSE-170 cells assessed as cell growth inhibition measured after 48 hrs by CCK-8 assay; format: functional, cell-based; details: KYSE-170, 48 h
DLD-1 = test: Cytotoxicity against human DLD-1 cells assessed as cell growth inhibition measured after 24 hrs by MTT assay; format: functional, cell-based; details: DLD-1, 24 h
[2] = Cytotoxicity against human HaCaT cells assessed as cell growth inhibition measured after 24 hrs by MTT assay; format: toxicity, cell-based
[3] = Cytotoxicity against HEK293 cells assessed as cell growth inhibition measured after 24 hrs by MTT assay; format: toxicity, cell-based; details: human
[4] = Cytotoxicity against human Kidney epithelial cells assessed as cell growth inhibition measured after 24 hrs by XTT assay; format: toxicity, cell-based
Bel-7402 = test: Antiproliferative activity against human Bel-7402 cells assessed as cell growth inhibition measured after 48 hrs by SRB assay; format: functional, cell-based; details: Bel-7402, 48 h
HepG2 [5] = test: Antiproliferative activity against human HepG2 cells assessed as cell growth inhibition measured after 48 hrs by SRB assay; format: functional, cell-based; details: HepG2, 48 h
MIA PaCa-2 = test: Antiproliferative activity against human MIA PaCa-2 cells assessed as cell growth inhibition measured after 48 hrs by SRB assay; format: functional, cell-based; details: MIA PaCa-2, 48 h
HepG2 [6] = test: Antitumor activity against human HepG2 xenografted in BALB/c nude mouse assessed as tumor growth inhibition at 10 mg/kg, iv administered every 2 days and measured upto 30 days relative to control; format: functional; details: HepG2, 720 h, time <= 30 day, read-out: TGI
MCF7 [7] = test: Antiproliferative activity against human MCF7 cells assessed as cell growth inhibition measured after 48 hrs by SRB assay; format: functional, cell-based; details: MCF7, 48 h
SMMC-7721 = test: Cytotoxicity against human SMMC-7721 cells assessed as cell growth inhibition measured after 48 hrs by MTT assay; format: functional, cell-based; details: SMMC-7721, 48 h
Hep 3B2 = test: Cytotoxicity against human Hep3B cells assessed as cell growth inhibition measured after 48 hrs by MTT assay; format: functional, cell-based
HepG2 [8] = test: Cytotoxicity against human HepG2 cells assessed as cell growth inhibition measured after 48 hrs by MTT assay; format: functional, cell-based; details: HepG2, 48 h
[9] = Cytotoxicity against human QSG7701 cells assessed as cell growth inhibition measured after 48 hrs by MTT assay; format: toxicity, cell-based
HeLa [10] = test: Cytotoxicity against human HeLa cells assessed as cell growth inhibition by MTT assay; format: functional, cell-based
HCT-116 = test: Antitumor activity against human HCT-116 cells xenografted in BALB/c nu/nu mouse assessed as reduction in tumor volume at 100 mg/kg/day, ip administered for 20 days measured by caliper relative to control; format: functional; set-up: scale not given: the % may be the effect or the level left; details: time 20 day
NCI-H1299 = test: Cytotoxicity against human NCI-H1299 cells assessed as cell growth inhibition by Trypan blue staining based analysis; format: functional; details: pooled result: one value given for 6 cell lines, strains, targets or settings
A549 [11] = test: Antitumour activity against human A549 cells xenografted in mouse assessed as reduction in tumor volume at 3 mg/kg relative to control; format: functional; set-up: scale not given: the % may be the effect or the level left
HeLa [12] = test: Potency index, ratio of cisplatin IC50 to compound IC50 for antiproliferative activity against human HeLa cells by MTT assay; format: functional
HeLa [13] = test: Antiproliferative activity against human HeLa cells assessed as cell growth inhibition by MTT assay; format: functional, cell-based
MDA-MB-231 [14] = test: Cytotoxicity against human MDA-MB-231 cells assessed as cell growth inhibition measured after 72 hrs by MTT assay; format: functional, cell-based; details: MDA-MB-231, 72 h
[15] = Cytotoxicity against human MCF-12A cells assessed as cell growth inhibition measured after 72 hrs by MTT assay; format: toxicity, cell-based
MCF7 [16] = test: Cytotoxicity against human MCF7 cells assessed as cell growth inhibition measured after 72 hrs by MTT assay; format: functional, cell-based; details: MCF7, 72 h
HeLa [17] = test: Antiproliferative activity against human HeLa cells assessed as cell growth inhibition by WST-1 assay; format: functional, cell-based
A549 [18] = test: Antiproliferative activity against human A549 cells assessed as cell growth inhibition measured after 48 hrs by SRB assay; format: functional, cell-based; details: A549, 48 h
CCRF-CEM = test: Antiproliferative activity against human CCRF-CEM cells assessed as cell growth inhibition measured after 48 hrs by SRB assay; format: functional, cell-based
MCF7 [19] = test: Antiproliferative activity against human MCF7 cells assessed as cell growth inhibition measured after 72 hrs by MTT assay; format: functional, cell-based; details: MCF7, 72 h
MDA-MB-231 [20] = test: Antiproliferative activity against human MDA-MB-231 cells assessed as cell growth inhibition measured after 72 hrs by MTT assay; format: functional, cell-based; details: MDA-MB-231, 72 h
[21] = Cytotoxicity against human MCF-10A cells assessed as cell growth inhibition measured after 72 hrs by MTT assay; format: toxicity, cell-based
[22] = Cytotoxicity against mouse 3T3-L1 cells assessed as cell growth inhibition measured after 72 hrs by MTT assay; format: toxicity, cell-based
HeLa [23] = test: Cytotoxicity against human HeLa cells assessed as cell growth inhibition measured after 72 hrs by MTT assay; format: functional, cell-based; details: pooled result: one value given for 3 cell lines, strains, targets or settings
HepG2 [24] = test: Cytotoxicity against human HepG2 cells assessed as cell growth inhibition measured after 72 hrs by MTT assay; format: functional, cell-based; details: HepG2, 72 h

SMILES: COc1ccc(NS(=O)(=O)c2ccc3c(c2)c2cc(O)ccc2n3C)c(OC)n1
IC50 (KYSE-510): 0.01 µM
IC50 (KYSE-410): 0.01 µM
IC50 (KYSE-30): 0.01 µM
IC50 (KYSE-140): 0.01 µM
IC50 [1]: 0.01 µM

SMILES: COc1ccc2c(c1)[nH]c1c3c(c(C)cc12)OC(C)(C)C=C3
IC50 (DLD-1): 17.9 µM
IC50 at 24 h [2]: > 100 µM
IC50 at 24 h [3]: > 100 µM

SMILES: CN(C)CCCNC(=O)c1ccc(-n2cc(-c3ccc4c(c3)c3ccccc3n4CCCN(C)C)nn2)cc1
IC50 at 24 h [4]: > 30 µM

IC50 (Bel-7402): 5.67 µM
IC50 (HepG2 [5]): 5.67 µM
IC50 (MIA PaCa-2): 5.67 µM
IC50 (MCF7 [7]): 5.67 µM
SMILES: COc1ccc(NS(=O)(=O)c2ccc3c(c2)c2cc(OCCCN4CCN(C)CC4)ccc2n3C)c(OC)n1
inhibition in vivo at 10 mg/kg (HepG2 [6]): 61.1%

SMILES: CCOc1ccc2c(c1)c1c(n2CCN2CCNCC2)-c2cc(C(C)C)ccc2[C@@]2(C)CCC[C@@](C)(C(=O)OC)C12 (some centres undefined)
IC50 (SMMC-7721): 0.51 µM
IC50 (Hep 3B2): 0.51 µM
IC50 (HepG2 [8]): 0.51 µM
IC50 at 48 h [9]: 12.5 µM

SMILES: CCn1c2ccccc2c2cc(/C=N/NC(=O)c3ccccc3Cl)ccc21
IC50 (HeLa [10]): 3.12 µM
Activity (HCT-116): 35%

SMILES: CCn1c2ccccc2c2cc(NC(=O)NCCN3CCN(C(=O)c4ccco4)CC3)ccc21
IC50 (NCI-H1299): 1.78 µM
Activity (A549 [11]): 65%

SMILES: CCCCCCCCn1c2ccc(/C=C/C(=O)c3ccccc3[N+](=O)[O-])cc2c2cc(C(C)=O)ccc21
Ratio IC50 (HeLa [12]): 2
IC50 (HeLa [13]): 5.64 µM

SMILES: CC[n+]1c(/C=C/c2ccc3c(c2)c2ccccc2n3CCCCn2ccnc2)sc2ccccc21
IC50 (MDA-MB-231 [14]): 11.4 µM
IC50 at 72 h [15]: > 18 µM
IC50 (MCF7 [16]): 9.5 µM

IC50 (HeLa [17]): 20 µM
SMILES: CC(C)=CCCC1(C)C=Cc2c(c(C)cc3c2[nH]c2c(-c4c(O)ccc5c4[nH]c4c6c(c(C)cc45)OC(C)(CCC=C(C)C)C=C6)c(O)ccc23)O1 (centres undefined)

IC50 (A549 [18]): 1.08 µM
IC50 (CCRF-CEM): 1.08 µM
IC50 (MCF7 [7]): 1.08 µM
SMILES: COc1ccc2c(c1)c1cc3c(-c4c([N+](=O)[O-])ncn4C)nccc3c(C)c1n2C

IC50 (MCF7 [19]): 4.4 µM
IC50 (MDA-MB-231 [20]): 4.4 µM
SMILES: C[N+](C)(C)CCN1CCN(CCCCCn2c3ccccc3c3cc(Cl)ccc32)CC1

SMILES: COc1cc(NC(=O)Nc2cc(C)c3[nH]c4ccc(C)cc4c3c2C)cc(OC)c1OC
IC50 at 72 h [21]: 210 µM
IC50 at 72 h [22]: 141 µM
IC50 (HeLa [23]): 1.93 µM
IC50 (MDA-MB-231 [14]): 1.93 µM
IC50 (HepG2 [24]): 1.93 µM
IC50 (MCF7 [16]): 1.93 µM
